Reference: ChEMBL document CHEMBL4507282, “Data for DCP probe BI-1950” (2021)

Legend:
[1] = biological target: Dual specificity tyrosine-phosphorylation-regulated kinase 2 (Homo sapiens) (UniProt Q92630); conditions: Compound concentration 1000.0 nM
[2] = biological target: Death-associated protein kinase 2 (Homo sapiens) (UniProt Q9UIK4); conditions: Compound concentration 1000.0 nM
[3] = biological target: G protein-coupled receptor kinase 4 (Homo sapiens) (UniProt P32298); conditions: Compound concentration 1000.0 nM
[4] = tested on: Mast/stem cell growth factor receptor Kit (Homo sapiens), P10721 [L576P]; conditions: Compound concentration 1000.0 nM
[5] = biological target: Cyclin-dependent kinase 17 (Homo sapiens) (UniProt Q00537); conditions: Compound concentration 1000.0 nM
[6] = biological target: Serine/threonine-protein kinase WNK4 (Homo sapiens) (UniProt Q96J92); conditions: Compound concentration 1000.0 nM
[7] = biological target: Insulin-like growth factor 1 receptor (Homo sapiens) (UniProt P08069); conditions: Compound concentration 1000.0 nM
[8] = biological target: Ephrin type-B receptor 3 (Homo sapiens) (UniProt P54753); conditions: Compound concentration 1000.0 nM
[9] = biological target: Serine/threonine-protein kinase D1 (Homo sapiens) (UniProt Q15139); conditions: Compound concentration 1000.0 nM
[10] = biological target: Beta-1 adrenergic receptor (Homo sapiens) (UniProt P08588); conditions: Compound concentration 10.0 uM
[11] = biological target: Cyclin-dependent kinase 4 (Homo sapiens) (UniProt P11802); conditions: Compound concentration 1000.0 nM
[12] = biological target: Mitogen-activated protein kinase kinase kinase 2 (Homo sapiens) (UniProt Q9Y2U5); conditions: Compound concentration 1000.0 nM
[13] = biological target: Serine/threonine-protein kinase TBK1 (Homo sapiens) (UniProt Q9UHD2); conditions: Compound concentration 1000.0 nM
[14] = biological target: Serine/threonine-protein kinase tousled-like 2 (Homo sapiens) (UniProt Q86UE8); conditions: Compound concentration 1000.0 nM
[15] = biological target: Serine/threonine-protein kinase D2 (Homo sapiens) (UniProt Q9BZL6); conditions: Compound concentration 1000.0 nM
[16] = biological target: Phosphatidylinositol 4-phosphate 3-kinase C2 domain-containing subunit beta (Homo sapiens) (UniProt O00750); conditions: Compound concentration 1000.0 nM
[17] = biological target: Bone morphogenetic protein receptor type-1B (Homo sapiens) (UniProt O00238); conditions: Compound concentration 1000.0 nM
[18] = biological target: Glycogen synthase kinase-3 beta (Homo sapiens) (UniProt P49841); conditions: Compound concentration 1000.0 nM
[19] = biological target: Cyclin-dependent kinase 2 homolog (Plasmodium falciparum (isolate 3D7)) (UniProt P61075); conditions: Compound concentration 1000.0 nM
[20] = biological target: Serine/threonine-protein kinase PAK 3 (Homo sapiens) (UniProt O75914); conditions: Compound concentration 1000.0 nM
[21] = biological target: MAP kinase-activated protein kinase 5 (Homo sapiens) (UniProt Q8IW41); conditions: Compound concentration 1000.0 nM
[22] = biological target: Platelet-derived growth factor receptor beta (Homo sapiens) (UniProt P09619); conditions: Compound concentration 1000.0 nM
[23] = biological target: Phosphatidylinositol 4,5-bisphosphate 3-kinase catalytic subunit alpha isoform (Homo sapiens) (UniProt P42336); conditions: Compound concentration 1000.0 nM
[24] = biological target: Serine/threonine-protein kinase STK11 (Homo sapiens) (UniProt Q15831); conditions: Compound concentration 1000.0 nM
[25] = tested on: Phosphatidylinositol 4,5-bisphosphate 3-kinase catalytic subunit alpha isoform (Homo sapiens), P42336 [E545K]; conditions: Compound concentration 1000.0 nM
[26] = biological target: Tyrosine-protein kinase ABL1 (Homo sapiens) (UniProt P00519); conditions: Compound concentration 1000.0 nM
[27] = tested on: Tyrosine-protein kinase ABL1 (Homo sapiens), P00519 [T315I]; conditions: Compound concentration 1000.0 nM
[28] = biological target: Dual specificity mitogen-activated protein kinase kinase 2 (Homo sapiens) (UniProt P36507); conditions: Compound concentration 1000.0 nM
[29] = biological target: Serine/threonine-protein kinase 17B (Homo sapiens) (UniProt O94768); conditions: Compound concentration 1000.0 nM
[30] = biological target: Serine/threonine-protein kinase BRSK1 (Homo sapiens) (UniProt Q8TDC3); conditions: Compound concentration 1000.0 nM
[31] = tested on: Tyrosine-protein kinase ABL1 (Homo sapiens), P00519 [M351T]; conditions: Compound concentration 1000.0 nM
[32] = biological target: Serine/threonine-protein kinase Nek11 (Homo sapiens) (UniProt Q8NG66); conditions: Compound concentration 1000.0 nM
[33] = biological target: Fibroblast growth factor receptor 4 (Homo sapiens) (UniProt P22455); conditions: Compound concentration 1000.0 nM
[34] = biological target: Mitogen-activated protein kinase kinase kinase kinase 3 (Homo sapiens) (UniProt Q8IVH8); conditions: Compound concentration 1000.0 nM
[35] = biological target: Macrophage colony-stimulating factor 1 receptor (Homo sapiens) (UniProt P07333); conditions: Compound concentration 1000.0 nM
[36] = tested on: Phosphatidylinositol 4,5-bisphosphate 3-kinase catalytic subunit alpha isoform (Homo sapiens), P42336 [E542K]; conditions: Compound concentration 1000.0 nM
[37] = biological target: Receptor tyrosine-protein kinase erbB-4 (Homo sapiens) (UniProt Q15303); conditions: Compound concentration 1000.0 nM
[38] = biological target: Dual specificity protein kinase CLK1 (Homo sapiens) (UniProt P49759); conditions: Compound concentration 1000.0 nM
[39] = biological target: Fibroblast growth factor receptor 3 (Homo sapiens) (UniProt P22607); conditions: Compound concentration 1000.0 nM

Chain of Phosphatidylinositol 4,5-bisphosphate 3-kinase catalytic subunit alpha isoform (Homo sapiens), P42336 [E545K] (P42336 whole entry E545K, canonical isoform): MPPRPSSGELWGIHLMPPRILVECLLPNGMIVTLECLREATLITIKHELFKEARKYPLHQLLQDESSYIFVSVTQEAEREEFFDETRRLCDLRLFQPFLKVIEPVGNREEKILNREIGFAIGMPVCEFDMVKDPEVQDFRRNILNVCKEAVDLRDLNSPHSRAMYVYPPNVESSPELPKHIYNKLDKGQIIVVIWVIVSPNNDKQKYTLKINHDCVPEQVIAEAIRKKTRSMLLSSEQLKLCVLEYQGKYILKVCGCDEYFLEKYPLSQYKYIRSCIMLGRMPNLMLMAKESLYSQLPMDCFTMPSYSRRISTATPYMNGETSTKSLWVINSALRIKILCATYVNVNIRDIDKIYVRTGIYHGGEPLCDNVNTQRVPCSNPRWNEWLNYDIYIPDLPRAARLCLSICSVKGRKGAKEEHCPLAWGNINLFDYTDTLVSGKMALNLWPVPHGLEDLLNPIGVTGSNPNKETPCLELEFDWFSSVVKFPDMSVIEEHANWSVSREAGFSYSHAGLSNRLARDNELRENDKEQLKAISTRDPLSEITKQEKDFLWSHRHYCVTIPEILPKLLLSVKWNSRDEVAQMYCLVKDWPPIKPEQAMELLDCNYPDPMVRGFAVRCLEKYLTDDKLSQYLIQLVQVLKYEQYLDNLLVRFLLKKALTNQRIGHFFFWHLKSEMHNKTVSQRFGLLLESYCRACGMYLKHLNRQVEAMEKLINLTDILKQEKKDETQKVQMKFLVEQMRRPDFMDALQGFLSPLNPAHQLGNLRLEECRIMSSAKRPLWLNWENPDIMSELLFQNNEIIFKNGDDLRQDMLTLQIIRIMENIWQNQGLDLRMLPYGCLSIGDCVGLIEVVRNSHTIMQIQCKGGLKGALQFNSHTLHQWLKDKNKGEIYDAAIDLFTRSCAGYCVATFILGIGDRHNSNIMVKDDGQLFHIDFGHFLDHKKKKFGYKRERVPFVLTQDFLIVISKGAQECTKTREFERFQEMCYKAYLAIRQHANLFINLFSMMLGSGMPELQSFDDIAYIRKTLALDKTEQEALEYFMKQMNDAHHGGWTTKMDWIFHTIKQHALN
Chain of Ephrin type-B receptor 3 (Homo sapiens) (P54753 whole entry): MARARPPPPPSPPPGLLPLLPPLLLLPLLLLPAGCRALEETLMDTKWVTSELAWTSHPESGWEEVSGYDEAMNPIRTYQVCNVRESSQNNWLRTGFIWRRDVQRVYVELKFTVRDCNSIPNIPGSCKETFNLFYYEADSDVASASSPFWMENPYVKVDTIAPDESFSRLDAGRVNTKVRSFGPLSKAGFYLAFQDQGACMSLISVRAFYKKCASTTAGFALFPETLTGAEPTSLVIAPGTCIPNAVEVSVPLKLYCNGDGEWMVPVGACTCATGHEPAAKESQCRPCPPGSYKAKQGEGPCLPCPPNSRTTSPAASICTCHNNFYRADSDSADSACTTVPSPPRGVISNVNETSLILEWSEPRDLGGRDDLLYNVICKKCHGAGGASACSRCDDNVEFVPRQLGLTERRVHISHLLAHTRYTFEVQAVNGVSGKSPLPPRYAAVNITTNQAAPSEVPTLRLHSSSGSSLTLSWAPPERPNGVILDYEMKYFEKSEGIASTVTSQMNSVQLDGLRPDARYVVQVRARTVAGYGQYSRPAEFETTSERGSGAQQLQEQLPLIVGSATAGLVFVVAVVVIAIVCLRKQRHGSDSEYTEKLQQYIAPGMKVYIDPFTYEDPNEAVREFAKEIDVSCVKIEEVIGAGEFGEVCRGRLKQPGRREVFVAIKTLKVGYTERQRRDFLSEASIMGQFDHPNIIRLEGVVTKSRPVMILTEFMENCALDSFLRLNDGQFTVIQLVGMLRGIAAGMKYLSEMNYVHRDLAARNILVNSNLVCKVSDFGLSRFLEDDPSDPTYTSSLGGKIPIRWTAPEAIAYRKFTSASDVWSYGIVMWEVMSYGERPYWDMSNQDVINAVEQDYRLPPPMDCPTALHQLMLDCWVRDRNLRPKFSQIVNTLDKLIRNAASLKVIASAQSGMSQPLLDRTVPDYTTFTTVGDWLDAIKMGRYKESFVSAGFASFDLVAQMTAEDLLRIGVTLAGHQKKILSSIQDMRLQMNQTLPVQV
Chain of Mast/stem cell growth factor receptor Kit (Homo sapiens), P10721 [L576P] (P10721 whole entry L576P): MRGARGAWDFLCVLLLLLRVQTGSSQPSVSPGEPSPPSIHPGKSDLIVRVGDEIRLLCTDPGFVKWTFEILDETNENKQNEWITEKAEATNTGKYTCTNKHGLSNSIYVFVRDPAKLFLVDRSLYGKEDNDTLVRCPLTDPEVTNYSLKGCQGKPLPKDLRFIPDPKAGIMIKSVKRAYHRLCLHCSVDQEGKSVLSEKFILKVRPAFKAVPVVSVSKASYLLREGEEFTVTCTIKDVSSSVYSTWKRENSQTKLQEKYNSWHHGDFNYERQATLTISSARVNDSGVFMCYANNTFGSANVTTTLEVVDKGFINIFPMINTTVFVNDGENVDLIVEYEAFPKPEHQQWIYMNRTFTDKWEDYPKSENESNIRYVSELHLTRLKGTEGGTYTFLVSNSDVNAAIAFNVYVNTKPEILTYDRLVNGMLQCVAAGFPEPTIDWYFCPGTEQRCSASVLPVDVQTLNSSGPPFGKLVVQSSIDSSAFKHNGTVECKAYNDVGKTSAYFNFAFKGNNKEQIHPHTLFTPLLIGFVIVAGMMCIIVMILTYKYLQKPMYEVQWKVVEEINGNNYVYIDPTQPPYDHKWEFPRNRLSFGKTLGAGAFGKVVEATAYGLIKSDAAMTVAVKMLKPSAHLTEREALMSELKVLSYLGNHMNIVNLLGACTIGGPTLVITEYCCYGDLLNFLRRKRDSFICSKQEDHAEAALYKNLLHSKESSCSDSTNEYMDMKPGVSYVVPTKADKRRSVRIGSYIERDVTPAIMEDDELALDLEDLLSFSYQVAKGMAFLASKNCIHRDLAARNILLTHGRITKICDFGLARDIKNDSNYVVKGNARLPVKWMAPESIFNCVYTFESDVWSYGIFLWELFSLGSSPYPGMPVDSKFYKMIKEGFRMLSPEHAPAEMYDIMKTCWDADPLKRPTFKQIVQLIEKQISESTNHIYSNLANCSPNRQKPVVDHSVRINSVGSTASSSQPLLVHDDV
Chain of Serine/threonine-protein kinase D2 (Homo sapiens) (Q9BZL6 whole entry, the tested form may be a part): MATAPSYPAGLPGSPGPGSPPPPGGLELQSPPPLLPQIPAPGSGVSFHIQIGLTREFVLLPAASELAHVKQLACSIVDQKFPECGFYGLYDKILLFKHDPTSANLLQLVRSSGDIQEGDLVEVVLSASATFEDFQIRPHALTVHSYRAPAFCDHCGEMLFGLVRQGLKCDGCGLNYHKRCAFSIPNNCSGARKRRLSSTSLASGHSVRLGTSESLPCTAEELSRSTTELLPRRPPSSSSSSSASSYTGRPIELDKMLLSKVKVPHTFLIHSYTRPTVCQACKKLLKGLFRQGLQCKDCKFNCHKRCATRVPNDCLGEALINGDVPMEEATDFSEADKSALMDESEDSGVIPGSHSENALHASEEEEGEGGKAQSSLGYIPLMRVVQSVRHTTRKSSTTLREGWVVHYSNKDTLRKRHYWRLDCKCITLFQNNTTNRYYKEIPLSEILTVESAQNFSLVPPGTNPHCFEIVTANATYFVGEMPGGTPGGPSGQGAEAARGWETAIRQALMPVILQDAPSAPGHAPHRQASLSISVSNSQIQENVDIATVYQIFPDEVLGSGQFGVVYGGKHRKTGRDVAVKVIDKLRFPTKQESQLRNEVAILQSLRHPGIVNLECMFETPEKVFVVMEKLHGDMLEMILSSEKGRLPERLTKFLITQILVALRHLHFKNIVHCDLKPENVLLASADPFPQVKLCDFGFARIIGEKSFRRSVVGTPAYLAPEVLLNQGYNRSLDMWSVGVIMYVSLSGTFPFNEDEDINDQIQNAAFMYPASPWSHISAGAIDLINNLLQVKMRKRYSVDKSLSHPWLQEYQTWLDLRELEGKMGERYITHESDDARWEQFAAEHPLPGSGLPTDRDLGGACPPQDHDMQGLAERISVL
Chain of Serine/threonine-protein kinase 17B (Homo sapiens) (O94768 whole entry): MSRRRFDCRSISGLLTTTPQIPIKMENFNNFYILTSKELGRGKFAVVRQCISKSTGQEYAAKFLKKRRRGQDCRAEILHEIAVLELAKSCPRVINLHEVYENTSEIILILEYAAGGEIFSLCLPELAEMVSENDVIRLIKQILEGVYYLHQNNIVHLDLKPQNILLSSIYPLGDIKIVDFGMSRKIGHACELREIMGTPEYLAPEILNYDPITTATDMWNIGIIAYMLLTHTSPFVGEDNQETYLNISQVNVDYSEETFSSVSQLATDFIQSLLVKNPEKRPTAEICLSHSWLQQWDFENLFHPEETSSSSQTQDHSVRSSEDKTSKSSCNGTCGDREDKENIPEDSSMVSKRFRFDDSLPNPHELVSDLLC
Chain of Bone morphogenetic protein receptor type-1B (Homo sapiens) (O00238 whole entry): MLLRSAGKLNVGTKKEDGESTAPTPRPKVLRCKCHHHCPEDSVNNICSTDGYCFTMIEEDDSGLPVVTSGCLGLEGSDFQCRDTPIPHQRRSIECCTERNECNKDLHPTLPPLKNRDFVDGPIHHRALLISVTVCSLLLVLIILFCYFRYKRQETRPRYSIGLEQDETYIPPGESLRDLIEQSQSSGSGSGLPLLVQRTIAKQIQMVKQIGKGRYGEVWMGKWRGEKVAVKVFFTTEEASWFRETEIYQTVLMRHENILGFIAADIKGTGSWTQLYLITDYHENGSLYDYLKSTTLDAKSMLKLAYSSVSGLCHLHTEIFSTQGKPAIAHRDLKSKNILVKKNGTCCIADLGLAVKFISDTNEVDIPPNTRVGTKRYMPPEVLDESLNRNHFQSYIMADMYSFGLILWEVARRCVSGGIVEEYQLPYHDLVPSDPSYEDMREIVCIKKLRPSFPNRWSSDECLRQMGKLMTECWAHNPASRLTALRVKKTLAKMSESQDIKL

C[C@@]1(Cc2ccc(C#N)cc2)C(=O)N(c2cc(Cl)cc(Cl)c2)c2ncc(C(=O)NC3(c4nc(C5CCC5)no4)CC3)n21 [BI 9446]
inactive: residual activity [1] 93% | residual activity [2] 84% | residual activity [3] 100% | residual activity [4] 100% | residual activity [5] 100% | residual activity [6] 100% | residual activity [7] 100% | residual activity [8] 99% | residual activity [9] 86% | inhibition [10] 29.7% | residual activity [11] 93% | residual activity [12] 100% | residual activity [13] 95% | residual activity [14] 97% | residual activity [15] 100% | residual activity [16] 100% | residual activity [17] 100% | residual activity [18] 100% | residual activity [19] 100% | residual activity [20] 100% | residual activity [21] 100% | residual activity [22] 100% | residual activity [23] 87% | residual activity [24] 100% | residual activity [25] 94% | residual activity [26] 100% | residual activity [27] 100% | residual activity [28] 99% | residual activity [29] 100% | residual activity [30] 100% | residual activity [31] 100% | residual activity [32] 100% | residual activity [33] 96% | residual activity [34] 78% | residual activity [35] 100% | residual activity [36] 83% | residual activity [37] 100% | residual activity [38] 100% | residual activity [39] 100%

C[C@H](NC(=O)c1cnc2n1[C@](C)(Cc1ccc(C#N)cc1)C(=O)N2c1cc(Cl)c(F)c(Cl)c1)C(=O)NC1(c2ccccn2)CC1 [BI 1950]
inactive: residual activity [1] 98% | residual activity [2] 100% | residual activity [3] 100% | residual activity [4] 83% | residual activity [5] 100% | residual activity [6] 100% | residual activity [7] 99% | residual activity [8] 100% | residual activity [9] 100% | inhibition [10] 24.1% | residual activity [11] 100% | residual activity [12] 100% | residual activity [13] 97% | residual activity [14] 59% | residual activity [15] 100% | residual activity [16] 85% | residual activity [17] 99% | residual activity [18] 100% | residual activity [19] 100% | residual activity [20] 100% | residual activity [21] 96% | residual activity [22] 91% | residual activity [23] 100% | residual activity [24] 100% | residual activity [25] 100% | residual activity [26] 99% | residual activity [27] 100% | residual activity [28] 90% | residual activity [29] 100% | residual activity [30] 100% | residual activity [31] 100% | residual activity [32] 100% | residual activity [33] 100% | residual activity [34] 100% | residual activity [35] 100% | residual activity [36] 100% | residual activity [37] 100% | residual activity [38] 86% | residual activity [39] 100%
